*1 amine or outer side, *2 acyl side, *3 side chain or, on linkers, in order; H or OH if unused. Bridges are numbered along the chain shown (N, C = ends). Primed or numbered codes have the meaning given here. [ ]: non-standard residue; d: D form. DTPA′ = diethylenetriaminepentaacetic acid chelator; NHCH2CH2SCH2CO = O=C(CSCCN[*:1])[*:2]; Cysteamide = C(CS[*:3])N[*:1]; AEEEA = NCCOCCOCCOCC(=O)O; AABz = not defined here
Experiments:
HCT-15 tumors = experiment: Biodistribution of cystine- and lactam-bridged conjugates (Eu content) in HCT-15 tumor-bearing mice; assay type: in vivo, athymic-nu nude mice; conditions: 4 nmol MJ018 vs 16 nmol MJ069 i.v., 15 min circulation
Protocol: The biodistribution of the targeting agents MJ018 (lactam-bridged; described in Example 4) and MJ069 (cystine-bridged; described below) comprising functional peptide YGFVWGE was compared in mice carrying primary tumors of HTC-15, a human colorectal cancer cell line.
For production of experimental tumors, 22.5 million (for MJ018), and 1 million (for MJ069) HCT-15 cells were injected subcutaneously into both flanks of athymic-nu nude mice (Harlan Laboratories). The human colorectal cancer HCT-15 cell line (ATCC: CCL-225), called herein also “HCT-15”, was cultured in RPMI 1640 medium with 2 mM L-glutamine adjusted to contain 1.5 g/L sodium bicarbonate, 4.5 g/L glucose, 10 mM HEPES, and 1.0 mM sodium pyruvate, 1% penicillin/streptomycin, 10% fetal bovine serum.
Tumors were harvested when they had reached a minimum weight of 0.1 g. […]
For determination of the Eu content of the tumors and control or gans, 0.05-0.2 g of tissue was transferred into lysis buffer (20 mM Tris-HCl, 150 mM NaCl, 1% Nonident P40, pH 7.5) and homogenised. The Eu-content was determined from tissue lysates prepared into Enhancement solution (Perkin Elmer Wallac Ltd., Turku, Finland) and transferred to DELFIA Micro titration strip plates (Perkin Elmer Wallac Ltd., Turku, Finland). Time-resolved fluorescence was measured after incubation with a Wallac 1420 VICTOR3™ V plate reader using a D615 nm filter.

[1] = Plasma stability of the peptide conjugates in human blood plasma/PBS (HPLC)
Protocol: The peptide conjugates (10-20 μg) was added to a human blood plasma/PBS mixture (1:1) in a total volume of 500 μl and incubated at 37° C. After incubation 100 μl per time point (0 and 240 min) was transferred to YM-10 (Microcon, cut-off 10000 MW; manufacturer Millipore), centrifuged (10000 RPM) 15 min at 4° C. 50 μl of the spin-through material was analyzed by HPLC.
HPLC: Waters 626 pump, 600S controller, Waters 996 photo diode array detector. Column: C18, 300 Å, 5 μm, 2.1×250 mm. Eluents for the non-conjugated functional peptides: A 0.1% TFA, B 0.075% TFA/100% ACN. Gradient: 0-100% B in 60 min. Flow: 180 μl/min. Loop: 50 μl.
Eluents for the functional peptide conjugates: Eluent A: 0.05 M ammonium acetate; B: 50% 0.05 M ammonium acetate/50% ACN. Gradient: 0-100% B in 60 min. Flow: 180 μl/min. Loop: 50 μl. One-minute fractions were collected and analyzed with MALDI-TOF.
Peptide mass: Bruker Ultraflex MALDI-TOF, N2-laser 337 nm, matrix saturated solution of α-cyano-4-hydroxycinnamic acid, reflector mode.

HCT-15 = experiment: Cell binding assay of immobilized peptide conjugate (MTT detection); assay type: cell-based, human; conditions: HCT-15 cells, wells coated at 30 μg/ml, 30 min 37° C.
Protocol: The human colorectal cancer HCT-15 cell line (ATCC: CCL-225), called herein also “HCT-15”, was cultured in RPMI 1640 medium with 2 mM L-glutamine adjusted to contain 1.5 g/L sodium bicarbonate, 4.5 g/L glucose, 10 mM HEPES, and 1.0 mM sodium pyruvate, 1% penicillin/streptomycin, 10% fetal bovine serum.
(§1) Preparation of plates for the assays. Wells of Reacti-Bind Maleimide activated clear strip plate (Pierce, Prod#. 15150) were coated with a peptide conjugate a*YGFVWGEE*-(Teg-E)2-EAT, Compound MJ013 prepared in Example 3, at a concentration of 30 μg/ml. The incubation was carried out overnight at 20° C. The binding buffer containing unbound peptide was re-moved from the wells.
(§2) The wells were blocked with blocking buffer (0.5% BSA, 0.05% Tween20 in phosphate buffer saline (PBS). PBS was prepared as follows: 40 g of NaCl, 1 g of KCl, 7 g of Na2HPO4×2H2O and 1 g of KH2PO4 were dissolved in […] of deionized H2O). Blank wells as controls were prepared by treating empty wells with blocking buffer. […]
(§3) Cell binding assay: 75000 cells in volume of 150 μl of medium were added into coated wells and were incubated for 30 min at 37° C. […] After formazan was solubilized by 10% SDS-0,01 M HCl, it was quantified with an ELISA spectrometer (ThermoLabsystems Multiscan EX) at 560 nm. […] The following day the absorbance of plate was measured at 560 nm with an ELISA-reader (ThermoLab-systems, Multiskan EX).

HCT-15-LM1 = experiment: as above; assay type: cell-based, human; conditions: HCT-15-LM1 cells, wells coated at 30 μg/ml, 30 min 37° C.
Text: The colorectal cancer cell line HCT-15-LM1 was developed as follows. The cell culture was started with cancer cells from lung metastases which had developed after injection of human colorectal cancer HCT-15 cells into the bloodstream of a mouse. The inoculation procedure was then repeated with HCT-15-LM1 cells leading to the establishment of another metastatic cell line, HCT-15-LM2.
as §1
The wells were blocked with blocking buffer (0.5% BSA, 0.05% Tween20 in phosphate buffer saline (PBS). PBS was prepared as follows: 40 g of NaCl, 1 g of KCl, 7 g of Na2HPO4×2H2O and 1 g of KH2PO4 were dissolved in 1000 ml of deionized H2O). […]
as §3

HSC-3 = experiment: as above; assay type: cell-based, human; conditions: HSC-3 cells, wells coated at 30 μg/ml, 30 min 37° C.
Protocol: The human oral squamous cell carcinoma line HSC-3, called herein “HSC-3” (JCRB Cell Bank 0623, National Institute of Health Sciences, Japan) was cultivated in 1:1 DMEM and Ham's F 12 medium containing 10% FBS 1% penicillin/streptomycin, L-glutamate and sodium pyruvate and 0.4 ng/ml hydrocortisone.
as §1, §2, §3

C8161T = experiment: as above; assay type: cell-based, human; conditions: C8161T cells, wells coated at 30 μg/ml, 30 min 37° C.
Protocol: The human melanoma cell line C8161 has been described previously by Welch et al. in Int. J. Cancer, 1991, 47: 227-237. A more metastatic cell line C8161T, called herein also “C8161T”, was developed by culturing cells from a subcutaneous melanoma tumor developed after inoculation of C8161 melanoma cells on the flank of a nude mouse. The cell line was cultured in DMEM medium adjusted to contain 2 mM L-glutamine, 1% penicillin/streptomycin, and 10% fetal bovine serum.
as §1, with “wells. […]” for “wells.”
as §3

NIH3T3 = experiment: as above; assay type: cell-based, mouse; conditions: control cell line NIH3T3, wells coated at 30 μg/ml, 30 min 37° C.
Protocol: The mouse fibroblast line NIH3T3, called herein also “NIH3T3”, has been described previously by Koga et al. in Gann, 1979, 70: 585-591. The cell line was cultured in DMEM medium adjusted to contain 2 mM L-glutamine, 1% penicillin/streptomycin, and 10% fetal bovine serum.
as §1, §2, §3

SVEC4-10 = experiment: as above; assay type: cell-based, mouse; conditions: control cell line SVEC4-10, wells coated at 30 μg/ml, 30 min 37° C.
Protocol: The mouse vascular endothelial cell line SVEC4-10, called herein also “SVEC4-10”, has been described previously by O'Connell et al. in J. Immunol., 1990, 144: 521-525. The cell line was cultured in DMEM medium adjusted to contain 2 mM L-glutamine, 1% penicillin/streptomycin, and 10% fetal bovine serum.
as §1, §2, §3

Substance | accumulation in tumor tissue (tissue-to-muscle Eu content), lactam- vs cystine-bridged (HCT-15 tumors) | Observed compound peak heights prior to incubation ([1]; 0 h, human blood plasma/PBS 1:1, 37° C.) | Observed compound peak heights after four hours ([1]; 4 h, human blood plasma/PBS 1:1, 37° C.) | degradation during incubation in plasma ([1]; 4 h incubation in human plasma) | cell binding to immobilized peptide conjugate (absorbance at 560 nm) (HCT-15) | cell binding to immobilized peptide conjugate (absorbance at 560 nm) (HCT-15-LM1) | cell binding to immobilized peptide conjugate (absorbance at 560 nm) (HSC-3) | cell binding to immobilized peptide conjugate (absorbance at 560 nm) (C8161T) | cell binding to immobilized peptide conjugate (absorbance at 560 nm) (NIH3T3) | cell binding to immobilized peptide conjugate (absorbance at 560 nm) (SVEC4-10)
a*YGFVWGEE*-(Teg-E)2-AEM-AABz-DTPA-Eu (YGFVWGEE[AEEEA]E[AEEEA]E-{NHCH2CH2SCH2CO-AABz-DTPA′}; lactam N-8; not fully specified (N-terminus); reading uncertain; also: DTPA chelate of Eu) [MJ018] | accumulated more strongly in the tumor tissue than the cystine-bridged conjugate MJ069 | 100% | 100% | no degradation | – | – | – | – | – | –
a*YGFVWGEE*-(Teg-E)2-EAT (YGFVWGEE[AEEEA]E[AEEEA]E-Cysteamide; lactam N-8; not fully specified (N-terminus)) [MJ013] | – | – | – | – | bind selectively | bind selectively | bind selectively | bind selectively | significantly less binding | significantly less binding

— patent US20070231258A1, “Peptide conjugates” (KARYON CTT LTD., priority 2006, published 2007)
